Data published in patent US20130231347A1, “METHOD OF TREATMENT WITH BRAF INHIBITOR” (GLAXOSMITHKLINE INTELLECTUAL PROPERTY (NO.2) LIMITED, priority 2010, published 2013).
Where two headings read alike, the source gives them in different places.

Columns and labels:
[1] = system: 12R5-3 (A375 F11 clone with acquired resistance to Compound A); assay: Cell growth inhibition assay (Cell Titer Glo, 3 days); assay type: cell-based; details: Homo sapiens, A-375, 72 h, 12R5-3: NRAS A146A/T, MEK1 WT, single agent, read-out: IC50, Single Agent Effect, Compound A
Procedure: (§3) A clonal isolate, hereinafter referred to as “A375 F11”, was obtained from the A375 cell line (obtained from ATCC), based on increased sensitivity to a BRAF inhibitor. A375 F11 cells were exposed to increasing concentrations of Compound A and maintained in a final concentration of 1.26 μM or 1.6 μM. 12R5-3, 12R8-1, 12R8-3, 16R5-5, 16R6-2, 16R6-3 and 16R6-4 were derived as single cell clones from mixed populations of these A375 F11 cells selected to grow in the presence of Compound A. All cells were grown in RPMI 1640 medium containing 10% Fetal Bovine Serum (FBS).
(§4) All cells were cultured without compound, e.g. Compound A, for a minimum of 72 hours prior to cell plating. Cells were assayed in a 96-well tissue culture plate (NUNC 136102) of RPMI medium containing 10% FBS for all cells at 1,000 cells per well. Approximately 24 hours after plating, cells were exposed to ten, three-fold serial dilutions of compound or the combination of the two agents at a constant molar to molar ratio, e.g. 10:1 Compound A to Compound B, in RPMI media containing 10% FBS. Cells were incubated in the presence of compounds for 3 days. ATP levels were determined by adding Cell Titer Glo® (Promega) according to the manufacturer's protocol. Briefly, Cell Titer Glo® was added each plate, incubated for 30 minutes then luminescent signal was read on the SpectraMax L plate reader with a 0.5 sec integration time. Inhibition of cell growth was estimated after treatment with compound or combination of compounds for three days and comparing the Cell Titer Glo® signal to cells treated with vehicle (DMSO). Cell growth was calculated relative to vehicle (DMSO) treated control wells.
(§5) For single agent and combination treatments, cells were exposed to compounds at a fixed-dose-ratio, and dose response curves were fit to the experimental data and analyzed using regression models.

[2] = system: 16R6-3 (A375 F11 clone with acquired resistance to Compound A); assay: as above; assay type: cell-based; details: Homo sapiens, A-375, 72 h, 16R6-3: NRAS A146A/T, MEK1 P387P/S, single agent, read-out: IC50, Single Agent Effect, Compound A
Procedure: as §3, §4, §5

[3] = system: 12R8-3 (A375 F11 clone with acquired resistance to Compound A); assay: as above; assay type: cell-based; details: Homo sapiens, A-375, 72 h, 12R8-3: NRAS A146A/T, MEK1 WT, single agent, read-out: IC50, Single Agent Effect, Compound A
Procedure: as §3, §4, §5

[4] = system: phosphorylation of MEK, ERK, S6P and cyclin D1 protein in A375 cells; assay: Western blot of signaling effects, parental cells; assay type: cell-based, human; details: western blot (FIG. 10)
Source text: (§1) Phospho-AKT (T308), phospho-AKT (S473), AKT, ERK, phospho-S6P (S235/236), S6P, cyclin D1, phospho-MEK1/2 (S217/S221), MEK1/2, MEK1, MEK2, and cleaved PARP antibodies were purchased from Cell Signaling. Primary antibodies to GAPDH, RAF-1, BRAF, and ARAF were purchased from Santa Cruz Biotechnology. Diphospho-ERK1/2 (T202/Y204) antibodies were purchased from Sigma and p27kip1 antibodies were purchased from Epitomics. Anti-Mouse IRDYE® 800CW antibody was purchased from LI-COR Biosciences. Anti-rabbit ALEXA FLUOR® 680 antibodies were purchased from Invitrogen. Compound A, Compound B, Compound C, and PLX4032 (20) were synthesized by GlaxoSmithKline Research Labs and the structures are shown in FIG. 7.

[5] = system: 12R5-5 (A375 F11 clone with acquired resistance to Compound A); assay: Cell growth inhibition assay (Cell Titer Glo, 3 days); assay type: cell-based; details: Homo sapiens, A-375, 72 h, 12R5-5: NRAS WT, MEK1 HET 59delK, single agent, read-out: IC50, Single Agent Effect, Compound A
Procedure: as §3, §4, §5

[6] = system: phosphorylation of MEK, ERK, S6P in A375 clones resistant to Compound A; assay: Western blot of signaling effects, resistant clones; assay type: cell-based, human; details: western blot (FIG. 10)
Source text: as §1

[7] = system: 16R6-2 (A375 F11 clone with acquired resistance to Compound A); assay: Cell growth inhibition assay (Cell Titer Glo, 3 days); assay type: cell-based; details: Homo sapiens, A-375, 72 h, 16R6-2: NRAS Q61Q/K, MEK1 P387P/S, single agent, read-out: IC50, Single Agent Effect, Compound A
Procedure: as §3, §4, §5

[8] = system: A375 F11 clones that acquired resistance to Compound A; assay: Cell growth inhibition assay, resistant A375 clones taken together; details: Homo sapiens
Procedure: as §3, §4, §5

[9] = system: 16R5-5 (A375 F11 clone with acquired resistance to Compound A); assay: Cell growth inhibition assay (Cell Titer Glo, 3 days); assay type: cell-based; details: Homo sapiens, A-375, 72 h, 16R5-5: NRAS Q61Q/K, MEK1 P387P/S, single agent, read-out: IC50, Single Agent Effect, Compound A
Procedure: as §3, §4, §5

A375 F11 cells = assay: as above; assay type: cell-based; details: Homo sapiens, 72 h, F11: NRAS WT, MEK1 WT, single agent, mean ± std, read-out: IC50, Single Agent Effect, Compound A
Procedure: as §3, §4, §5

[10] = system: 16R6-4 (A375 F11 clone with acquired resistance to Compound A); assay: as above; assay type: cell-based; details: Homo sapiens, A-375, 72 h, 16R6-4: NRAS Q61Q/K, A146A/T, MEK1 P387P/S, single agent, read-out: IC50, Single Agent Effect, Compound A
Procedure: as §3, §4, §5

[11] = system: YUSIT1 clones that acquired resistance to Compound A (BRAF V600K); assay: Cell growth inhibition assay, resistant YUSIT1 clones; assay type: cell-based, human
Source text: The YUSIT1 melanoma cells were obtained from Yale Dermatology Cell Culture Facility.

[12] = system: 12R8-1 (A375 F11 clone with acquired resistance to Compound A); assay: Cell growth inhibition assay (Cell Titer Glo, 3 days); assay type: cell-based; details: Homo sapiens, A-375, 72 h, 12R8-1: NRAS A146A/T, MEK1 WT, single agent, read-out: IC50, Single Agent Effect, Compound A
Procedure: as §3, §4, §5

[13] = system: A375 cells expressing MEK1Q56P; assay: Proliferation of BacMAM-transduced A375 cells; assay type: cell-based; details: Homo sapiens, A-375, read-out: IC50, inhibition of proliferation
Procedure: (§2) BacMAM constructs were generated using MEK1 cDNA and mutations in MEK1 were introduced using site directed mutagenesis. BacMAM virus particles were prepared as described in the supplemental methods. A375 cells were transduced with the indicated BacMAM virus. Forty-eight hours post transduction, cells were plated for subsequent proliferation and western blot analysis as described above.

[14] = system: A375 cells expressing MEK1P124L; assay: Proliferation of BacMAM-transduced A375 cells; assay type: cell-based; details: Homo sapiens, A-375, read-out: IC50, inhibition of proliferation
Procedure: as §2

[15] = system: A375 cells expressing MEK1K59del; assay: Proliferation of BacMAM-transduced A375 cells; assay type: cell-based; details: Homo sapiens, A-375, read-out: IC50, inhibition of proliferation
Procedure: as §2

A375 cells, Mock = assay: Proliferation of BacMAM-transduced A375 cells; assay type: cell-based; details: Homo sapiens, A-375, read-out: IC50, inhibition of proliferation
Procedure: as §2

[16] = system: A375 cells expressing MEK1C121S; assay: Proliferation of BacMAM-transduced A375 cells; assay type: cell-based; details: Homo sapiens, A-375, read-out: IC50, inhibition of proliferation
Procedure: as §2

[17] = system: A375 cells expressing MEK1F129L; assay: Proliferation of BacMAM-transduced A375 cells; assay type: cell-based; details: Homo sapiens, A-375, read-out: IC50, inhibition of proliferation
Procedure: as §2

[18] = system: A375 cells expressing wild-type MEK1; assay: Proliferation of BacMAM-transduced A375 cells; assay type: cell-based; details: Homo sapiens, A-375, read-out: IC50, inhibition of proliferation
Procedure: as §2

[19] = system: 12R5-1 (A375 F11 clone with acquired resistance to Compound A); assay: Cell growth inhibition assay (Cell Titer Glo, 3 days); assay type: cell-based; details: Homo sapiens, A-375, 72 h, 12R5-1: NRAS WT, MEK1 HET 59delK, single agent, read-out: IC50, Single Agent Effect, Compound A
Procedure: as §3, §4, §5

Compound: CC(C)(C)c1nc(-c2cccc(NS(=O)(=O)c3c(F)cccc3F)c2F)c(-c2ccnc(N)n2)s1 [Compound A, N-{3-[5-(2-Amino-4-pyrimidinyl)-2-(1,1-dimethylethyl)-1,3-thiazol-4-yl]-2-fluorophenyl}-2,6-difluorobenzenesulfonamide]
- IC50 [1]: > 10000 nM
- IC50 [2]: > 10000 nM
- IC50 [3]: > 10000 nM
- decrease of cyclin D1 protein levels [4]: more than 65%
- inhibition of phosphorylation of MEK, ERK, and S6P [4]: more than 75%
- IC50 [5]: > 10000 nM
- reduction of ERK phosphorylation [6]: less than 50%
- reduction of S6P phosphorylation [6]: < 25%
- IC50 [7]: > 10000 nM
- IC50 ([8]; A-375, read-out: IC50, cell growth): > 10000 nM
- IC50 ([8]; A-375, read-out: IC50, cell growth inhibition, single agent): > 10000 nM
- IC50 ([8]; A-375, read-out: IC50 of the combination, for Compound A): 178 to 392 nM
- IC50 [9]: > 10000 nM
- IC50 (A375 F11 cells): 24 ± 17 nM
- IC50 [10]: > 10000 nM
- IC50 ([11]; Homo sapiens, read-out: IC50, cell growth inhibition): > 500 nM
- reduced sensitivity compared to the parental YUSIT1 cells ([11]; YUSIT1 clones resistant to Compound A, single agent (FIG. 9)): ≥ 38 fold
- IC50 [12]: > 10000 nM
- IC50 [13]: ≥ 420 nM
- IC50 [14]: 84 nM
- IC50 [15]: 179 nM
- IC50 (A375 cells, Mock): 30 nM
- IC50 [16]: ≥ 330 nM
- IC50 [17]: 140 nM
- IC50 [18]: 28 nM
- IC50 [19]: > 10000 nM
